The source of these data is patent US4710568A, “Carbapenem antibiotics” (priority 1986, dated 1987).

One data set relates to S. faecalis A20688. Description: MIC by tube dilution in Nutrient Broth. Type of data set: cell-based. The conditions noted are these: additional data; overnight at 37° C.
For another data set, the system named is P. aeruginosa A-9843A. Put plainly: MIC by tube dilution in Nutrient Broth. The class given is cell-based. Conditions: additional data; overnight at 37° C.
The subject of another data set is P. morganii A15153. Put plainly: MIC by tube dilution in Nutrient Broth. The class given is cell-based. Conditions: additional data (M. morganii A15153); overnight at 37° C.
In the next data set the test system is E. cloacae A-9656. Put plainly: MIC by tube dilution in Nutrient Broth. The class given is cell-based. Conditions: additional data; overnight at 37° C.
The test system of a further data set is K. pneumoniae A20468. Put plainly: MIC by tube dilution in Nutrient Broth. Conditions: additional data; overnight at 37° C. The class given is cell-based.
For data set [1], the system named is S. aureus (Pen-res.) A-9606. Description: MIC by tube dilution in Nutrient Broth. Type of data set: cell-based. The conditions noted are these: additional data, overnight at 37° C.
The next data set concerns S. aureus A-9537. Put plainly: MIC by tube dilution in Nutrient Broth. Type of data set: cell-based. The conditions noted are these: additional data, overnight at 37° C.
A further data set has as its system E. cloacae A-9659. Description: MIC by tube dilution in Nutrient Broth. The class given is cell-based. The conditions noted are these: additional data; overnight at 37° C.
In a further data set the test system is E. coli A15119. Description: MIC by tube dilution in Nutrient Broth. The class given is cell-based. Conditions: overnight at 37° C.
A further data set relates to P. mirabilis A-9900. Description: MIC by tube dilution in Nutrient Broth. Type of data set: cell-based. Conditions: additional data; overnight at 37° C.
A short description of data set [2]: half-life in phosphate buffer pH 7.4. The class given is physicochemical. The conditions noted are these: for t1/2: pH 7.4. Here is the method: To a solution of p-nitrobenzyl 3-[2-(1-pyridinium)ethylthio]-6α-[1-(R)-hydroxyethyl]-7-oxo-1-azabicyclo(3.2.0)hept-2-ene-carboxylate diphenylphosphate (0.16 g, 0.22 mmol) in wet tetrahydrofuran (10 mL) was added ether (10 mL), potassium phosphate monobasic-sodium hydroxide buffer pH 7.4 (16 mL, 0.05M) and 10% palladium on charcoal (0.16 g). The resulting mixture was hydrogenated under 40 psi for 1 h at 25° C. The two phases were separated and the organic phase was extracted with water (2×3 mL). The aqueous solutions were combined, washed with ether (2×10 mL) and poured on top of a column (1.5×6.2 cm) of μ-bondapak C-18 after the traces of organic solvents have been removed under vacuum.
To a solution of p-nitrobenzyl 3-[2-(1-(3,5-dimethylpyridinium))ethylthio]-6α-[1-(R)-hydroxyethyl]- 7-oxo-1-azabicyclo(3.2.0)hept-2-ene-2-carboxylate diphenylphosphate (0.600 g, 0.80 mmol) in wet tetrahydrofuran (36 mL) was added ether (36 mL), potassium phosphate monobasic-sodium hydroxide buffer (0.05M, pH 7.4, 44 mL) and 10% palladium on charcoal (0.60 g). The resulting mixture was hydrogenated under 40 psi at 23° C. for 1.25 h. The organic layer was separated and extracted with buffer (2×5 mL). […] Elution of the column with water and lyophilization of the appropriate fractions gave the title compound 0.186 g (64%) as a yellowish powder, ir (KBr) .nu.max : 3700-3100 (OH), 1760 (C= O of β-lactam), 1595 cm^-1 (carboxylate), ^1 Hmr (D2 O) δ: 1.21 (3H, d, J=6.3 Hz, CH3 CHOH), 2.45 (6H, s, CH3 on pyridinium), 2.81 (d, J=9.2 Hz, H-4), 2.96 (d, J=9.2 Hz, H-4), 3.22 (dd, J=2.6 Hz, J=6.2 Hz, H-6), 3.40 (t, J=6.2 Hz, CH2 S), 3.84 (dd, J=9.2 Hz, J=2.6 Hz, H-5), 4.15 (m, CH3 CHOH), 4.71 (t, J=6.2 Hz, CH2 N^+), 8.21 (1H, s, Hp of pyridinium), 8.46 (2H, s, Ho of pyridinium), uv (H2 O) λmax : 279 (ε8345), 296 (ε7714) m, [α]D^23 +40.7 (c 0.53, H2 O), .tau.1/2 =16.9 h (measured at a concentration of […] in phosphate buffer pH 7.4 at 36.8° C.). […]

The test system of the next data set is S. pneumoniae A-9585. Description: MIC by tube dilution in Nutrient Broth. Type of data set: cell-based. Conditions: additional data; overnight at 37° C.
In the next data set the test system is S. pyogenes A-9604. Description: MIC by tube dilution in Nutrient Broth. The conditions noted are these: additional data; overnight at 37° C. The class given is cell-based.
In another data set the test system is P. rettgeri A22424. Description: MIC by tube dilution in Nutrient Broth. Type of data set: cell-based. The conditions noted are these: additional data; overnight at 37° C.
The next data set has as its system P. aeruginosa A21213. Description: MIC by tube dilution in Nutrient Broth. The class given is cell-based. The conditions noted are these: additional data; overnight at 37° C.
For another data set, the system named is P. vulgaris A21559. Description: MIC by tube dilution in Nutrient Broth. Conditions: additional data; overnight at 37° C. Type of data set: cell-based.
Another data set has as its system E. coli A20341-1. Put plainly: MIC by tube dilution in Nutrient Broth. Conditions: overnight at 37° C. The class given is cell-based.
The test system of a further data set is K. pneumoniae A-9664. Description: MIC by tube dilution in Nutrient Broth. Type of data set: cell-based. Conditions: additional data; overnight at 37° C.
For a further data set, the system named is S. marcescens A20019. Description: MIC by tube dilution in Nutrient Broth. Type of data set: cell-based. Conditions: additional data; overnight at 37° C.
Setting [3] is: Escherichia coli, A15119, additional data, read-out: MIC.

In brackets after ≈: the same amount, converted by molar mass. Where two headings read alike, the source gives them in different places.

As for `CC(C[n+]1ccccc1)SC1=C(C(=O)[O-])N2C(=O)[C@H]([C@@H](C)O)[C@H]2C1` (single isomer, unassigned) [Ex. 15 (cmp. "A")], the MIC was 2 mg/L (≈ 5.74 µM) in the data set on S. faecalis A20688; 8 mg/L (≈ 23 µM) with P. aeruginosa A-9843A; 0.13 mg/L (≈ 0.373 µM) in the data set with P. morganii A15153; 0.25 mg/L (≈ 0.718 µM) against E. cloacae A-9656; 0.13 mg/L (≈ 0.373 µM) against K. pneumoniae A20468; 0.06 mg/L (≈ 0.172 µM) in data set [1]. The MIC was determined as 0.06 mg/L (≈ 0.172 µM) with S. aureus A-9537 (50% serum); 0.016 mg/L (≈ 0.0459 µM) in the data set on S. aureus A-9537; 0.13 mg/L (≈ 0.373 µM) with E. cloacae A-9659; 0.03 mg/L (≈ 0.0861 µM) against E. coli A15119 (additional data); 0.13 mg/L (≈ 0.373 µM) against P. mirabilis A-9900; 0.004 mg/L (≈ 0.0115 µM) against S. pneumoniae A-9585. The figures for the MIC with S. pyogenes A-9604 and in the data set on P. rettgeri A22424 were 0.004 mg/L (≈ 0.0115 µM) and 0.25 mg/L (≈ 0.718 µM), respectively. This molecule showed a t1/2 in data set [2] of 15.6 h.
Take `Cc1cccc(C)[n+]1CCSC1=C(C(=O)[O-])N2C(=O)[C@H]([C@@H](C)O)[C@H]2C1` [Ex. 12]: the minimum inhibitory concentration (MIC) in the data set with E. coli A15119 (setting [3]) is 0.03 mg/L (≈ 0.0828 µM).
Take `C[C@@H](O)[C@H]1C(=O)N2C(C(=O)[O-])=C(SC3CCCCC3[n+]3ccccc3)C[C@H]12` (single isomer, unassigned) [Ex. 16 (cmp. "B"), (5R,6S)3-[2-[(R or S)-(1-pyridinium)]-1-(R or S)-cyclohexylthio]-6-[1-(R)-hydroxyethyl]-7-oxo-1-azabicyclo(3.2.0)hept-2-ene-2-carboxylate]: the MIC is 8 mg/L (≈ 20.6 µM) in the data set on P. aeruginosa A21213, 0.5 mg/L (≈ 1.29 µM) against P. morganii A15153, 0.13 mg/L (≈ 0.335 µM) in the data set on S. aureus A-9537 and 0.13 mg/L (≈ 0.335 µM) in the data set with P. vulgaris A21559. This molecule also displayed a t1/2 in data set [2] of 20.2 h.
Take `C[C@@H](O)[C@H]1C(=O)N2C(C(=O)[O-])=C(SCC[n+]3cccc(N)c3)C[C@H]12` [Ex. 14, (5R,6S)-3-[2-(3-aminopyridinio)ethylthio]-6-[1-(R)-hydroxyethyl]-7-oxo-1-azabicyclo[3.2.0]hept-2-ene-2-carboxylate]: the MIC in the data set with E. coli A15119 (setting [3]) turned out to be 0.03 mg/L (≈ 0.0859 µM).
Take `COc1ccc[n+](CCSC2=C(C(=O)[O-])N3C(=O)[C@H]([C@@H](C)O)[C@H]3C2)c1` [Ex. 10, 3-[2-(3-methoxy-1-pyridinium)ethylthio]6α-[1'-(R)-hydroxyethyl]-7-oxo-1-azabicyclo(3.2.0)hept-2-ene-2-carboxylate]: the MIC in the data set with E. coli A20341-1 (Escherichia coli, A203411, additional data, read-out: MIC) is 0.06 mg/L (≈ 0.165 µM).
In the case of `CC(C[n+]1ccccc1)SC1=C(C(=O)[O-])N2C(=O)[C@H]([C@@H](C)O)[C@H]2C1` (single isomer, unassigned) [Ex. 15 (cmp. "B")], the minimal inhibitory concentration (MIC) is 0.5 mg/L (≈ 1.44 µM) in the data set on S. faecalis A20688; 1 mg/L (≈ 2.87 µM) against P. aeruginosa A21213; 32 mg/L (≈ 91.8 µM) with P. aeruginosa A-9843A; 0.03 mg/L (≈ 0.0861 µM) against K. pneumoniae A-9664; 0.06 mg/L (≈ 0.172 µM) against P. morganii A15153; 0.06 mg/L (≈ 0.172 µM) in the data set with K. pneumoniae A20468. The MIC turned out to be 0.016 mg/L (≈ 0.0459 µM) in data set [1]; 0.016 mg/L (≈ 0.0459 µM) against S. aureus A-9537 (50% serum); 0.004 mg/L (≈ 0.0115 µM) in the data set on S. aureus A-9537; 0.03 mg/L (≈ 0.0861 µM) in the data set on S. marcescens A20019; 0.016 mg/L (≈ 0.0459 µM) in the data set with E. coli A20341-1 (additional data); 0.06 mg/L (≈ 0.172 µM) in the data set on E. cloacae A-9659. The MIC against P. vulgaris A21559 amounted to 0.016 mg/L (≈ 0.0459 µM); against E. coli A15119 (additional data), 0.008 mg/L (≈ 0.023 µM); with P. mirabilis A-9900, 0.03 mg/L (≈ 0.0861 µM); against S. pneumoniae A-9585, 0.001 mg/L (≈ 0.00287 µM); in the data set on S. pyogenes A-9604, 0.001 mg/L (≈ 0.00287 µM).
Consider `C[C@@H](O)[C@H]1C(=O)N2C(C(=O)[O-])=C(SC3CCCCC3[n+]3ccccc3)C[C@H]12` (single isomer, unassigned) [Ex. 16 (cmp. "A"), (5R,6S)3-[2-[(R or S)-(1-pyridinium)]-1-(R or S)-cyclohexylthio]-6-[1-(R)-hydroxyethyl]-7-oxo-1-azabicyclo(3.2.0)hept-2-ene-2-carboxylate], for which the MIC against S. faecalis A20688 amounted to 4 mg/L (≈ 10.3 µM); against P. aeruginosa A21213, 2 mg/L (≈ 5.15 µM); against P. aeruginosa A-9843A it was 32 mg/L (≈ 82.4 µM); in the data set with K. pneumoniae A-9664 it was 0.13 mg/L (≈ 0.335 µM); against P. morganii A15153, 0.13 mg/L (≈ 0.335 µM); in data set [1] (Staphylococcus aureus, read-out: MIC), 0.13 mg/L (≈ 0.335 µM). For the same molecule, the MIC in the data set on S. aureus A-9537 (50% serum) was found to be 0.06 mg/L (≈ 0.154 µM); in the data set on S. aureus A-9537 it was 0.06 mg/L (≈ 0.154 µM); in the data set on E. coli A20341-1 (additional data) it was 0.06 mg/L (≈ 0.154 µM); in the data set with P. vulgaris A21559, 0.06 mg/L (≈ 0.154 µM); with P. mirabilis A-9900, 0.13 mg/L (≈ 0.335 µM); with S. pneumoniae A-9585, 0.004 mg/L (≈ 0.0103 µM). Besides, the MIC stood at 0.004 mg/L (≈ 0.0103 µM) in the data set on S. pyogenes A-9604 and 4 mg/L (≈ 10.3 µM) in the data set with P. rettgeri A22424. The molecule also had a half-life in data set [2] (pH 7.4, t1/2) of 16.6 h.
